Laboratory results taken from patent US20240208898A1, “ENAMINE N-OXIDES: SYNTHESIS AND APPLICATION TO HYPOXIA-RESPONSIVE PRODRUGS AND IMAGING AGENTS” (DANA-FARBER CANCER INSTITUTE, INC., priority 2021, published 2024).

System: series of cancer cell lines
Assay: In-gel fluorescence labeling profile in a series of cancer cell lines
Assay type: cell-based
Procedure: Cells were seeded at a density of 200,000 cells per well in media [2 mL, RPMI (A431, H460, HeLa, Bx-PC3, MDA-MB-231) or DMEM (U251) supplemented with 5% heat-inactivated human serum (Sigma), penicillin (100 units/mL), and streptomycin (0.1 mg/mL)] in 6-well plates. Cells were incubated at 37° C. under ambient atmosphere with 5% CO2. After 24 h, the media was aspirated and replaced with fresh media [1 mL, RPMI (A431, H460, HeLa, Bx-PC3, MDA-MB-231) or DMEM (U251) supplemented with 5% heat-inactivated human serum, penicillin (100 units/mL), and streptomycin (0.1 mg/mL)] containing enamine N-oxide probe (200 mM in ethanol; 10 μM final concentration). Plates were then incubated at 37° C. under ambient (20% pO2) or various oxygenated conditions (5%, 1%, or 0.1% pO2) with 5% CO2. […] The protein concentration was determined by BCA assay following the manufacturer's protocol (Pierce). […] The dried pellet was then resuspended in an SDS solution (50 μL, 1% SDS in 50 mM Tris, pH 8.0), and the protein concentration was determined by BCA assay. […] In-gel fluorescence was visualized by a laser scanner (Typhoon™ FLA 9500, GE) and quantified using ImageJ software. […] Detection was mediated by an anti-rabbit IR680-dye conjugated secondary antibody (LI-COR Biosciences, 925-68071) and imaged using a fluorescence scanner (Odyssey CLx, LI-COR Biosciences).

C#CCCCCC(F)/C=C/[N+]([O-])(CC)CC (stereo not shown) [probe 39, (E)-N,N-diethyl-3-fluoronon-1-en-8-yn-1-amine oxide]
labeling profile (hypoxic vs normoxic): hypoxia selectivity
